The text below walks through data of article PMC7956753, “Development of ^18F-Labeled Radiotracers for PET Imaging of the Adenosine A2A Receptor: Synthesis, Radiolabeling and Preliminary Biological Evaluation” (International Journal of Molecular Sciences, 2021).

Where “and” joins values, the source holds several entries; their conditions need not be identical. Equal values may be shown once. Read-outs that look alike come from different tables or passages of the source.

One test concerns the target T1, human A1R (Homo sapiens, UniProt P30542).
T1 sequence (P30542 1-326): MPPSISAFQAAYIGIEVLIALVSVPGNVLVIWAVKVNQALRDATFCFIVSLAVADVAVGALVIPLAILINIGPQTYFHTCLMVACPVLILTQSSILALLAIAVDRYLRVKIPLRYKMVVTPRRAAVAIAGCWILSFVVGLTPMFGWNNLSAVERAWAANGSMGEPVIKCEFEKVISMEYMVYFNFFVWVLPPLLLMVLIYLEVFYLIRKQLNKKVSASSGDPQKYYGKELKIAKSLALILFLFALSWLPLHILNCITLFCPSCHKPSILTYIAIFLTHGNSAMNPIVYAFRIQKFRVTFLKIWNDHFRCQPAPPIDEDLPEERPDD
As to the kind of experiment: In vitro radioligand binding assay with [3H]DPCPX on membranes of CHO-K1 cells stably transfected with human A1R.

In the next test the target is human A2AR (Homo sapiens, UniProt P29274). As to the kind of experiment: In vitro radioligand binding assay with [3H]ZM241385 on membranes of CHO-K1 cells stably transfected with human A2AR. The following applies: for Ki: in-house, mean ± standard deviation (n ≥ 3) or mean (n = 2, single values in brackets), Cheng-Prusoff.
Chain of human A2AR (P29274 whole entry): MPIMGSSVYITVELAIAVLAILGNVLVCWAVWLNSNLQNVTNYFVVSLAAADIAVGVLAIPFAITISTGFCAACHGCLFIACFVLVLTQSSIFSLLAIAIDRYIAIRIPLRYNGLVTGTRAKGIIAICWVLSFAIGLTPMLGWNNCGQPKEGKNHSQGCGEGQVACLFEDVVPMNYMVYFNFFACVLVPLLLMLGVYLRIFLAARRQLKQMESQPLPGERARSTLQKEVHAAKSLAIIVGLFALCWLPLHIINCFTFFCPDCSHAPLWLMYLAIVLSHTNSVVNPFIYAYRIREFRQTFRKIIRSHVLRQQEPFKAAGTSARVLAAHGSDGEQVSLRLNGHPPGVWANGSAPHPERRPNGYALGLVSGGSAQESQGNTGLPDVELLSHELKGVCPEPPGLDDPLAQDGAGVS
Setting [1] is: read-out: Ki(hA1R), in-house, mean ± standard deviation (n ≥ 3) or mean (n = 2, single values in brackets), Cheng-Prusoff.

As a reminder, the Ki is the equilibrium dissociation constant of an inhibitor or competing ligand from its target. With “1-((6-Fluoropyridin-2-yl)methyl)-4-(furan-2-yl)-1H-pyrazolo[3,4-d]pyrimidin-6-amine [PPY6]”, the Ki on human A1R (setting [1]) came out at 566 nM; on human A2AR (read-out: Ki(hA2AR)) it was 27.1 ± 2.6 nM.

Consider “1-((6-Fluoropyridin-3-yl)methyl)-4-(furan-2-yl)-1H-pyrazolo[3,4-d]pyrimidin-6-amine [PPY5]”, for which the results for the Ki on human A1R (setting [1]) and on human A2AR (read-out: Ki(hA2AR)) were 689 nM and 25.7 ± 0.9 nM, respectively.

As for “2-((6-Amino-4-(furan-2-yl)-1H-pyrazolo[3,4-d]pyrimidin-1-yl)methyl)-5-fluoro-benzonitrile [PPY12]”, the Ki at human A1R (setting [1]) was found to be 810 nM; at human A2AR (read-out: Ki(hA2AR)) it was 66.7 nM.

Take `Nc1nc(-c2ccco2)c2cnn(Cc3ccc(F)cc3)c2n1` [PPY1, 1-(4-Fluorobenzyl)-4-(furan-2-yl)-1H-pyrazolo[3,4-d]pyrimidin-6-amine]: the Ki on human A1R is 220 nM; on human A2AR (Ki(hA2AR)), 5.3 nM and 5.29 nM.

In the case of `Nc1nc(-c2ccco2)c2cnn(Cc3ccccc3F)c2n1` [PPY2, 1-(2-Fluorobenzyl)-4-(furan-2-yl)-1H-pyrazolo[3,4-d]pyrimidin-6-amine], the Ki at human A2AR (Ki(hA2AR)) was determined as 2.13 ± 0.42 nM; on human A2AR (read-out: Ki(hA2AR)), 2.1 nM. Moreover, on human A2AR (ortho- vs para-fluorine), the “increase of A2AR binding affinity compared with PPY1” value was 2.5 fold.

Turning to `Nc1nc(-c2ccco2)c2cnn(Cc3cccc(F)c3)c2n1` [PPY3, 1-(3-Fluorobenzyl)-4-(furan-2-yl)-1H-pyrazolo[3,4-d]pyrimidin-6-amine], the Ki was found to be 132 nM on human A1R and 3.6 ± 1.29 nM at human A2AR (Ki(hA2AR)). Besides, the “decrease of A2AR binding affinity compared with PPY” value on human A2AR (chlorine (PPY) exchanged for fluorine) was 3 fold.

Take `Nc1nc(-c2ccco2)c2cnn(Cc3cccnc3F)c2n1` [PPY4, 1-((2-Fluoropyridin-3-yl)methyl)-4-(furan-2-yl)-1H-pyrazolo[3,4-d]pyrimidin-6-amine]: the Ki turned out to be 822 nM at human A1R and 47.8 ± 4.8 nM on human A2AR (Ki(hA2AR)).

In the case of `Nc1nc(-c2ccco2)c2cnn(Cc3ccnc(F)c3)c2n1` [PPY7, 1-((2-Fluoropyridin-4-yl)methyl)-4-(furan-2-yl)-1H-pyrazolo[3,4-d]pyrimidin-6-amine], the values for the Ki on human A1R and at human A2AR (Ki(hA2AR)) were 2880 nM and 161 ± 19 nM, respectively.

With `Nc1nc(-c2ccco2)c2cnn(Cc3ccc(Br)cc3F)c2n1` [PPY8, 1-(4-Bromo-2-fluorobenzyl)-4-(furan-2-yl)-1H-pyrazolo[3,4-d]pyrimidin-6-amine], the Ki worked out at 31.3 ± 15.5 nM on human A1R and 0.93 ± 0.1 nM at human A2AR (Ki(hA2AR)). The “increase of A2AR binding affinity compared with PPY2” value at human A2AR (additional bromine) was determined as 2 fold.

On to `Nc1nc(-c2ccco2)c2cnn(Cc3ccc(F)cc3Br)c2n1` [PPY9, 1-(2-Bromo-4-fluorobenzyl)-4-(furan-2-yl)-1H-pyrazolo[3,4-d]pyrimidin-6-amine], for which the affinity on human A2AR (Ki(hA2AR)) corresponds to a Ki of 34.1 nM.

Consider `Nc1nc(-c2ccco2)c2cnn(Cc3cc(F)cc(Br)c3)c2n1` [PPY10, 1-(3-Bromo-5-fluorobenzyl)-4-(furan-2-yl)-1H-pyrazolo[3,4-d]pyrimidin-6-amine], for which the Ki at human A1R worked out at 160 nM; at human A2AR (Ki(hA2AR)), 14.2 nM.

Regarding `Nc1nc(-c2ccco2)c2cnn(Cc3c(F)cccc3Br)c2n1` [PPY11, 1-(2-Bromo-6-fluorobenzyl)-4-(furan-2-yl)-1H-pyrazolo[3,4-d]pyrimidin-6-amine], the Ki was 162 ± 22 nM on human A1R and 2.35 ± 0.3 nM at human A2AR (Ki(hA2AR)).

For `N#Cc1cc(F)cc(Cn2ncc3c(-c4ccco4)nc(N)nc32)c1` [PPY14, 3-((6-Amino-4-(furan-2-yl)-1H-pyrazolo[3,4-d]pyrimidin-1-yl)methyl)-5-fluoro-benzonitrile], the Ki on human A1R came out at 954 nM; at human A2AR (Ki(hA2AR)), 291 nM.

As to `N#Cc1cccc(F)c1Cn1ncc2c(-c3ccco3)nc(N)nc21` [PPY15, 2-((6-Amino-4-(furan-2-yl)-1H-pyrazolo[3,4-d]pyrimidin-1-yl)methyl)-3-fluoro-benzonitrile], the Ki at human A1R stood at 470 nM; at human A2AR (Ki(hA2AR)), 12.3 nM.

On to `Nc1nc(-c2ccco2)c2cnn(Cc3cccc(CCF)c3)c2n1` [PPY16, 1-(3-(2-Fluoroethyl)benzyl)-4-(furan-2-yl)-1H-yrazolo[3,4-d]pyrimidin-6-amine], for which the Ki worked out at 69.2 ± 32.8 nM on human A1R and 1.63 ± 0.22 nM at human A2AR (Ki(hA2AR)).

Take `Nc1nc(-c2ccco2)c2cnn(Cc3cccc(OCCF)c3)c2n1` [PPY17, 1-(3-(2-Fluoroethoxy)benzyl)-4-(furan-2-yl)-1H-pyrazolo[3,4-d]pyrimidin-6-amine]: the Ki at human A1R was determined as 215 ± 38 nM; at human A2AR (Ki(hA2AR)), 4.5 ± 0.99 nM.

As to `Nc1nc(-c2ccco2)c2cnn(Cc3cccc(OCCCF)c3)c2n1` [PPY18, 1-(3-(3-Fluoropropoxy)benzyl)-4-(furan-2-yl)-1H-pyrazolo[3,4-d]pyrimidin-6-amine], the affinity on human A2AR (Ki(hA2AR)), expressed as Ki, was 76.8 ± 12.9 nM.

On to `Nc1nc(-c2ccco2)c2cnn(CCc3ccccc3F)c2n1` [PPY19, 1-(2-Fluorophenethyl)-4-(furan-2-yl)-1H-pyrazolo[3,4-d]pyrimidin-6-amine], for which the Ki came to 245 nM at human A1R and 107 nM at human A2AR (Ki(hA2AR)).

For the compound `Nc1nc(-c2ccco2)c2cnn(C(=O)c3ccccc3F)c2n1` [PPY21, (6-Amino-4-(furan-2-yl)-1H-pyrazolo[3,4-d]pyrimidin-1-yl)(2-fluorophenyl)-methanone], the results for the Ki on human A1R and at human A2AR (Ki(hA2AR)) were 1550 nM and 283 nM, respectively.

`Nc1nc(-c2ccco2)c2cnn(Cc3ccccc3)c2n1` [PPY22, 1-Benzyl-4-(furan-2-yl)-1H-pyrazolo[3,4-d]pyrimidin-6-amine]: the Ki at human A2AR (Ki(hA2AR)) amounted to 1.68 ± 0.14 nM.

With `Nc1nc(-c2ccco2)c2cnn(Cc3cccc(Cl)c3)c2n1` [PPY, reference compound], the Ki on human A2AR (read-out: Ki(hA2AR)) was 1 ± 0.09 nM.

For “(6-Amino-4-(furan-2-yl)-1H-pyrazolo[3,4-d]pyrimidin-1-yl)(2-fluorophenyl)-methanone [PPY20]”, the Ki is 1420 nM at human A1R (setting [1]) and 275 nM at human A2AR (read-out: Ki(hA2AR)).
